Measurements: US10414759B2, “Phenylthiazoles and uses thereof” (Purdue Research Foundation, priority 2017, dated 2019)
Values after ≈ are worked out from the molar mass of the structure shown. Like-named read-outs stand apart in the source and are kept apart here. Blank lines part the entries; values can stand above or below the compound they belong to.

How the values were obtained:
[1] = PBS solubility screen (turbidometric); format: physicochemical
Protocol: The solutions were diluted 100-fold into PBS in a 96-well plate and mixed. The absorbance of the PBS-containing plate was measured prior to addition of the test agents to determine the background absorbance. After 2 h, the presence of precipitate was detected by turbidity (absorbance at 540 nm). […] The solubility limit is reported as the highest experimental concentration with no evidence of turbidity.

MRSA (2658 RCMB) = assay: MIC against MRSA (2658 RCMB), broth dilution; format: cell-based, Staphylococcus aureus; conditions: Staphylococcus aureus
Protocol: Bacteria were cultured in cation-adjusted Mueller Hinton broth in a 96-well plate. Compounds, using triplicate samples, were added to the plate and serially diluted. […] Plates were visually inspected and the MIC was categorized as the concentration at which no visible growth of bacteria was observed. The average of triplicate MIC determinations is reported.
(§1) A bacterial solution equivalent to 0.5 McFarland standard was prepared and diluted in cation-adjusted Mueller-Hinton broth (CAMHB) to achieve a bacterial concentration of about 5×10^5 CFU/mL and seeded in 96-well plates. Enterococcus faecium was diluted in brain heart infusion broth. Enterococcus faecalis, Streptococcus pneumonia and Listeria monocytogenes were diluted in tryptone soya broth (TSB).

MRSA (USA300) = assay: Time-kill assay; format: cell-based, Staphylococcus aureus; conditions: 3.0×MIC
Protocol: Aliquots (100 μL) were taken from each sample after 2, 4, 6, 8, 10, 12, and 24 hours, serially diluted in phosphate-buffered saline, and transferred to Trypticase soy agar (TSA) (Becton, Dickinson and Company, Sparks, Md., USA) plates. Plates were incubated at 37° C. for at least 16 hours before counting viable CFU/mL to determine the time required to reduce the bacterial cell count by 3-log10.

MRSA NRS384 (USA300) = assay: MIC/MBC S. aureus strains (Table 8); format: cell-based; conditions: Staphylococcus aureus
Protocol: as §1

MRSA NRS385 = assay: MIC/MBC S. aureus strains (Table 8); format: cell-based; conditions: Staphylococcus aureus
Protocol: as §1

S. aureus ATCC 6538 = assay: MIC/MBC S. aureus strains (Table 8); format: cell-based; conditions: Staphylococcus aureus, ATCC6538
Protocol: as §1

[2] = tested on: Methicillin-resistant Staphylococcus epidermidis NRS101; assay: MIC/MBC Gram-positive pathogens (Table 9); format: cell-based
Protocol: as §1

[3] = tested on: Enterococcus faecalis ATCC 51299 (VRE); assay: MIC/MBC Gram-positive pathogens (Table 9); format: cell-based; conditions: Table 9; Enterococcus faecalis ATCC 51299 (VRE)
Protocol: as §1

[4] = tested on: Enterococcus faecium ATCC 700221 (VRE); assay: MIC/MBC Gram-positive pathogens (Table 9); format: cell-based; conditions: Table 9; Enterococcus faecium ATCC 700221 (VRE); read-out: MIC
Protocol: The minimum inhibitory concentration (MIC) of tested compounds and control antibiotics were determined using the broth microdilution method in accordance with the recommendations contained in the Clinical and Laboratory Standards Institute guidelines, against methicillin-sensitive (ATCC 6538 and NRS107), methicillin-resistant (MRSA), and vancomycin-resistant (VRSA) Staphylococcus aureus, Staphylococcus epidermidis, Enterococcus faecalis, E. faecium, Listeria monocytogenes, and Streptococcus pneumoniae clinical isolates. A bacterial solution equivalent to 0.5 McFarland standard was prepared and diluted in cation-adjusted Mueller-Hinton broth (CAMHB) to achieve a bacterial concentration of about 5×10^5 CFU/mL and seeded in 96-well plates. Enterococcus faecium was diluted in brain heart infusion broth. Enterococcus faecalis, Streptococcus pneumonia and Listeria monocytogenes were diluted in tryptone soya broth (TSB). Compounds and control drugs were added in the first row of 96-well plates and serially diluted (to achieve a concentration gradient ranging from 128 to 1 μg/mL). Plates were then incubated aerobically at 37° C. for at least 18 hours. The minimum bactericidal concentration (MBC) of the active compounds was tested by plating 5 μL from wells with no growth onto Tryptic soy agar (TSA) plates.

[5] = aqueous buffer, kinetic from dmso stock
[6] = Table 1, MRSA (2658 RCMB), read-out: MIC ± SD

SMILES: COC(=O)[C@H]1[C@H]2C[C@@H]3c4[nH]c5cc(OC)ccc5c4CCN3C[C@H]2C[C@@H](OC(=O)c2cc(OC)c(OC)c(OC)c2)[C@@H]1OC [Reserpine, reserpine, reference compound]
solubility at 2 h ([1]; phosphate buffered saline (PBS), highest concentration with no precipitate (OD540), read-out: Solubility limit): 31.3 µM (≈ 19.1 µg/mL)

SMILES: Cc1nc(-c2ccc(-c3ccco3)cc2)sc1-c1ccnc(N)n1 [Compound 25, 4-{2-[4-(Furan-2-yl)phenyl]-4-methylthiazol-5-yl}pyrimidin-2-amine]
solubility at 2 h ([1]; aqueous buffer, kinetic from dmso stock, phosphate buffered saline (PBS), highest concentration with no precipitate (OD540), read-out: Solubility limit): 14 µM (≈ 4.68 µg/mL) | MIC (MRSA (2658 RCMB); MRSA, read-out: MIC ± SD): 8.7 ± 0.3 mg/L (≈ 26 µM) | melting point: 209.3 °C

SMILES: Cc1nc(-c2ccc(C(C)(C)C)cc2)sc1-c1ccnc(NC(=N)N2CCOCC2)n1 [Compound 61, N-(4-(2-(4-(tert-Butyl)phenyl)-4-methylthiazol-5-yl)pyrimidin-2-yl) morpholine-4-carboximidamide]
bactericidal / bacteriostatic behaviour in time-kill assay, in words (MRSA (USA300); MRSA): rapid bactericidal activity | time to completely eradicate the MRSA inoculum (MRSA (USA300); t-butyl series): within two to four hours | MIC (MRSA NRS384 (USA300)): 4 mg/L (≈ 9.16 µM) | MIC (MRSA NRS385): 4 mg/L (≈ 9.16 µM) | MIC (S. aureus ATCC 6538): 4 mg/L (≈ 9.16 µM) | MBC [2]: 4 mg/L (≈ 9.16 µM) | MIC [2]: 4 mg/L (≈ 9.16 µM) | MIC [3]: 4 mg/L (≈ 9.16 µM) | MIC (MRSA (2658 RCMB); Table 7, initial screening, MRSA (2658 RCMB), read-out: minimum inhibitory concentration (MIC)): 1.17 mg/L (≈ 2.68 µM) | MIC [4]: 4 mg/L (≈ 9.16 µM)

Continued, values first:

solubility at 2 h [1, 5]: 35 µM (≈ 11.7 µg/mL) | MIC (MRSA (2658 RCMB); [6]): 3.12 mg/L (≈ 9.33 µM) | melting point: 160.6 °C
SMILES: Cc1nc(-c2ccc(C3=CCCC3)cc2)sc1-c1ccnc(N)n1 [Compound 27, 4-{2-[4-(Cyclopent-1-en-1-yl)phenyl]-4-methylthiazol-5-yl}pyrimidin-2-amine]

solubility at 2 h [1, 5]: 8.5 µM (≈ 2.98 µg/mL) | MIC (MRSA (2658 RCMB); [6]): 6.25 mg/L (≈ 17.8 µM) | melting point: 225 °C (dec.)
SMILES: Cc1nc(-c2ccc(-c3ccsc3)cc2)sc1-c1ccnc(N)n1 [Compound 26, 4-{4-Methyl-2-[4-(thiophen-3-yl)phenyl]thiazol-5-yl}pyrimidin-2-amine]
